# Results reported in ChEMBL document CHEMBL1142186, “Multistep resistance selection and postantibiotic-effect studies of the antipneumococcal activity of LBM415 compared to other agents” (2007).
# Legend:
# Streptococcus pneumoniae [1] = experiment: Antibacterial activity against clarithromycin resistance selected Streptococcus pneumoniae 3665 after 10 antibiotic-free subcultures by macrodilution method; format: functional
# Streptococcus pneumoniae [2] = experiment: Antibacterial activity against gatifloxacin resistance selected Streptococcus pneumoniae 1076 with ParC S79Y mutation after 10 antibiotic-free subcultures by macrodilution method; format: functional
# Streptococcus pneumoniae [3] = experiment: Antibacterial activity against azithromycin resistance selected Streptococcus pneumoniae 1077 with 23S rRNA A2058G mutation after 10 antibiotic-free subcultures by macrodilution method; format: functional
# Streptococcus pneumoniae [4] = experiment: Antibacterial activity against azithromycin resistance selected Streptococcus pneumoniae 1077 with 23S rRNA A2058G mutation after 29 passages by macrodilution method; format: functional
# Streptococcus pneumoniae [5] = experiment: Antibacterial activity against moxifloxacin resistance selected Streptococcus pneumoniae 3665 with GyrA S81Y mutation after 10 antibiotic-free subcultures by macrodilution method; format: functional
# Streptococcus pneumoniae [6] = experiment: Antibacterial activity against moxifloxacin resistance selected Streptococcus pneumoniae 3676 with GyrA E85G, GyrB S478I and ParC S79Y mutation after 10 antibiotic-free subcultures by macrodilution method; format: functional
# Streptococcus pneumoniae [7] = experiment: Antibacterial activity against Streptococcus pneumoniae 2527 by macrodilution method; format: functional
# Streptococcus pneumoniae [8] = experiment: Antibacterial activity against moxifloxacin resistance selected Streptococcus pneumoniae 3009 with GyrA S81F and ParC D83N mutation after 10 antibiotic-free subcultures by macrodilution method; format: functional
# Streptococcus pneumoniae [9] = experiment: Antibacterial activity against gatifloxacin resistance selected Streptococcus pneumoniae 37 with GyrA S81Y, GyrB E474K and ParC S79Y mutation after 10 antibiotic-free subcultures by macrodilution method; format: functional
# Streptococcus pneumoniae [10] = experiment: Antibacterial activity against Streptococcus pneumoniae 3243 by macrodilution method; format: functional
# Streptococcus pneumoniae [11] = experiment: Antibacterial activity against azithromycin resistance selected Streptococcus pneumoniae 2527 after 10 antibiotic-free subcultures by macrodilution method; format: functional
# Streptococcus pneumoniae [12] = experiment: Antibacterial activity against Streptococcus pneumoniae assessed as period of suppression of bacterial growth; format: functional
# Streptococcus pneumoniae [13] = experiment: Antibacterial activity against clarithromycin resistance selected Streptococcus pneumoniae 3676 after 10 antibiotic-free subcultures by macrodilution method; format: functional
# Streptococcus pneumoniae [14] = experiment: Antibacterial activity against levofloxacin resistance selected Streptococcus pneumoniae 19 with GyrA S81Y and ParC D83Y mutation after 10 antibiotic-free subcultures by macrodilution method; format: functional
# Streptococcus pneumoniae [15] = experiment: Antibacterial activity against clarithromycin resistance selected Streptococcus pneumoniae 3243 with 23S rRNA A2059T mutation after 10 antibiotic-free subcultures by macrodilution method; format: functional
# Streptococcus pneumoniae [16] = experiment: Antibacterial activity against azithromycin resistance selected Streptococcus pneumoniae 3243 with L22 insertion 93SFRPRA94 mutation after 10 antibiotic-free subcultures by macrodilution method; format: functional
# Streptococcus pneumoniae [17] = experiment: Antibacterial activity against Streptococcus pneumoniae 1077 by macrodilution method; format: functional
# Streptococcus pneumoniae [18] = experiment: Antibacterial activity against clarithromycin resistance selected Streptococcus pneumoniae 3009 after 10 antibiotic-free subcultures by macrodilution method; format: functional
# Streptococcus pneumoniae [19] = experiment: Antibacterial activity against moxifloxacin resistance selected Streptococcus pneumoniae 24 with GyrA S81Y, GyrB P413S and ParC S79F mutation after 10 antibiotic-free subcultures by macrodilution method; format: functional
# Streptococcus pneumoniae [20] = experiment: Antibacterial activity against azithromycin resistance selected Streptococcus pneumoniae 3243 with L22 insertion 93SFRPRA94 mutation after 33 passages by macrodilution method; format: functional
# Streptococcus pneumoniae [21] = experiment: Antibacterial activity against azithromycin resistance selected Streptococcus pneumoniae 2527 after 20 passages by macrodilution method; format: functional
# Streptococcus pneumoniae [22] = experiment: Antibacterial activity against moxifloxacin resistance selected Streptococcus pneumoniae 19 with GyrA S81F mutation after 10 antibiotic-free subcultures by macrodilution method; format: functional
# Streptococcus pneumoniae [23] = experiment: Antibacterial activity against moxifloxacin resistance selected Streptococcus pneumoniae 1076 with ParC S79Y mutation after 10 antibiotic-free subcultures by macrodilution method; format: functional
# Streptococcus pneumoniae [24] = experiment: Antibacterial activity against moxifloxacin resistance selected Streptococcus pneumoniae 3243 after 10 antibiotic-free subcultures by macrodilution method; format: functional
# Streptococcus pneumoniae [25] = experiment: Antibacterial activity against levofloxacin resistance selected Streptococcus pneumoniae 3009 with GyrA S81Y and ParC S79Y mutation after 10 antibiotic-free subcultures by macrodilution method; format: functional
# Streptococcus pneumoniae [26] = experiment: Antibacterial activity against gatifloxacin resistance selected Streptococcus pneumoniae 3009 after 10 antibiotic-free subcultures by macrodilution method; format: functional
# Streptococcus pneumoniae [27] = experiment: Antibacterial activity against clarithromycin resistance selected Streptococcus pneumoniae 3243 with 23S rRNA A2059T mutation after 41 passages by macrodilution method; format: functional
# Streptococcus pneumoniae [28] = experiment: Antibacterial activity against clarithromycin resistance selected Streptococcus pneumoniae 3676 after 44 passages by macrodilution method; format: functional
# Streptococcus pneumoniae [29] = experiment: Antibacterial activity against Streptococcus pneumoniae 3009 by macrodilution method; format: functional
# Streptococcus pneumoniae [30] = experiment: Antibacterial activity against Streptococcus pneumoniae 3676 by macrodilution method; format: functional
# Streptococcus pneumoniae [31] = experiment: Antibacterial activity against clarithromycin resistance selected Streptococcus pneumoniae 3009 after 25 passages by macrodilution method; format: functional
# Streptococcus pneumoniae [32] = experiment: Antibacterial activity against Streptococcus pneumoniae 3665 by macrodilution method; format: functional
# Streptococcus pneumoniae [33] = experiment: Antibacterial activity against clarithromycin resistance selected Streptococcus pneumoniae 3665 after 26 passages by macrodilution method; format: functional
# Streptococcus pneumoniae [34] = experiment: Antibacterial activity against Streptococcus pneumoniae 37 by macrodilution method; format: functional
# Streptococcus pneumoniae [35] = experiment: Antibacterial activity against gatifloxacin resistance selected Streptococcus pneumoniae 3009 after 14 passages by macrodilution method; format: functional
# Streptococcus pneumoniae [36] = experiment: Antibacterial activity against Streptococcus pneumoniae 1076 by macrodilution method; format: functional
# Streptococcus pneumoniae [37] = experiment: Antibacterial activity against gatifloxacin resistance selected Streptococcus pneumoniae 1076 with ParC S79Y mutation after 20 passages by macrodilution method; format: functional
# Streptococcus pneumoniae [38] = experiment: Antibacterial activity against gatifloxacin resistance selected Streptococcus pneumoniae 37 with GyrA S81Y, GyrB E474K and ParC S79Y mutation after 14 passages by macrodilution method; format: functional
# Streptococcus pneumoniae [39] = experiment: Antibacterial activity against moxifloxacin resistance selected Streptococcus pneumoniae 1076 with ParC S79Y mutation after 35 passages by macrodilution method; format: functional
# Streptococcus pneumoniae [40] = experiment: Antibacterial activity against moxifloxacin resistance selected Streptococcus pneumoniae 19 with GyrA S81F mutation after 32 passages by macrodilution method; format: functional
# Streptococcus pneumoniae [41] = experiment: Antibacterial activity against moxifloxacin resistance selected Streptococcus pneumoniae 3009 with GyrA S81F and ParC D83N mutation after 19 passages by macrodilution method; format: functional
# Streptococcus pneumoniae [42] = experiment: Antibacterial activity against moxifloxacin resistance selected Streptococcus pneumoniae 3665 with GyrA S81Y mutation after 38 passages by macrodilution method; format: functional
# Streptococcus pneumoniae [43] = experiment: Antibacterial activity against moxifloxacin resistance selected Streptococcus pneumoniae 3243 after 20 passages by macrodilution method; format: functional
# Streptococcus pneumoniae [44] = experiment: Antibacterial activity against moxifloxacin resistance selected Streptococcus pneumoniae 3676 with GyrA E85G, GyrB S478I and ParC S79Y mutation after 50 passages by macrodilution method; format: functional
# Streptococcus pneumoniae [45] = experiment: microbe, parasite or virus in culture
SMILES,MIC (Streptococcus pneumoniae [1]),MIC (Streptococcus pneumoniae [2]),MIC (Streptococcus pneumoniae [3]),MIC (Streptococcus pneumoniae [5]),MIC (Streptococcus pneumoniae [6]),MIC (Streptococcus pneumoniae [8]),MIC (Streptococcus pneumoniae [9]),MIC (Streptococcus pneumoniae [11]),Post Antibiotic Effe (Streptococcus pneumoniae [12]),MIC (Streptococcus pneumoniae [13]),MIC (Streptococcus pneumoniae [14]),MIC (Streptococcus pneumoniae [15]),MIC (Streptococcus pneumoniae [16]),MIC (Streptococcus pneumoniae [18]),MIC (Streptococcus pneumoniae [19]),MIC (Streptococcus pneumoniae [22]),MIC (Streptococcus pneumoniae [23]),MIC (Streptococcus pneumoniae [24]),MIC (Streptococcus pneumoniae [25]),MIC (Streptococcus pneumoniae [26]),other results
CC[C@H]1OC(=O)[C@H](C)[C@@H](O[C@H]2C[C@@](C)(OC)[C@@H](O)[C@H](C)O2)[C@H](C)[C@@H](O[C@@H]2O[C@H](C)C[C@H](N(C)C)[C@H]2O)[C@](C)(O)C[C@@H](C)CN(C)[C@H](C)[C@@H](O)[C@]1(C)O [AZITHROMYCIN],8 µg/mL,> 128 µg/mL,> 64 µg/mL,8 µg/mL,4 µg/mL,> 128 µg/mL,> 128 µg/mL,4 µg/mL,3.1 h,16 µg/mL,> 128 µg/mL,1 µg/mL,0.5 µg/mL,128 µg/mL,> 128 µg/mL,> 128 µg/mL,> 128 µg/mL,0.016 µg/mL,128 µg/mL,> 128 µg/mL,MIC (Streptococcus pneumoniae [4]): > 64 µg/mL; MIC (Streptococcus pneumoniae [7]): 0.016 µg/mL; MIC (Streptococcus pneumoniae [10]): 0.03 µg/mL; MIC (Streptococcus pneumoniae [17]): 0.03 µg/mL; MIC (Streptococcus pneumoniae [20]): 0.25 µg/mL; MIC (Streptococcus pneumoniae [21]): 4 µg/mL
CC[C@H]1OC(=O)[C@H](C)[C@@H](O[C@H]2C[C@@](C)(OC)[C@@H](O)[C@H](C)O2)[C@H](C)[C@@H](O[C@@H]2O[C@H](C)C[C@H](N(C)C)[C@H]2O)[C@](C)(OC)C[C@@H](C)C(=O)[C@H](C)[C@@H](O)[C@]1(C)O [CLARITHROMYCIN],8 µg/mL,> 128 µg/mL,> 128 µg/mL,2 µg/mL,4 µg/mL,4 µg/mL,> 128 µg/mL,16 µg/mL,3.8 h,16 µg/mL,> 128 µg/mL,0.25 µg/mL,0.5 µg/mL,64 µg/mL,> 128 µg/mL,> 128 µg/mL,> 128 µg/mL,0.004 µg/mL,0.5 µg/mL,2 µg/mL,MIC (Streptococcus pneumoniae [27]): 0.25 µg/mL; MIC (Streptococcus pneumoniae [10]): 0.016 µg/mL; MIC (Streptococcus pneumoniae [28]): 32 µg/mL; MIC (Streptococcus pneumoniae [29]): 16 µg/mL; MIC (Streptococcus pneumoniae [30]): 4 µg/mL; MIC (Streptococcus pneumoniae [31]): > 128 µg/mL; MIC (Streptococcus pneumoniae [32]): 2 µg/mL; MIC (Streptococcus pneumoniae [33]): 16 µg/mL
COc1c(N2CCNC(C)C2)c(F)cc2c(=O)c(C(=O)O)cn(C3CC3)c12 (stereo not drawn) [GATIFLOXACIN],0.25 µg/mL,8 µg/mL,8 µg/mL,0.5 µg/mL,2 µg/mL,2 µg/mL,16 µg/mL,8 µg/mL,1.7 h,0.5 µg/mL,4 µg/mL,0.25 µg/mL,0.25 µg/mL,0.25 µg/mL,4 µg/mL,0.5 µg/mL,8 µg/mL,1 µg/mL,8 µg/mL,8 µg/mL,MIC (Streptococcus pneumoniae [34]): 1 µg/mL; MIC (Streptococcus pneumoniae [35]): 16 µg/mL; MIC (Streptococcus pneumoniae [36]): 2 µg/mL; MIC (Streptococcus pneumoniae [29]): 1 µg/mL; MIC (Streptococcus pneumoniae [37]): 16 µg/mL; MIC (Streptococcus pneumoniae [38]): 16 µg/mL
COc1c(N2C[C@@H]3CCCN[C@@H]3C2)c(F)cc2c(=O)c(C(=O)O)cn(C3CC3)c12 [MOXIFLOXACIN],–,–,–,–,8 µg/mL,–,16 µg/mL,–,1.5 h,–,–,–,–,–,–,2 µg/mL,–,–,4 µg/mL,–,MIC (Streptococcus pneumoniae [36]): 1 µg/mL; MIC (Streptococcus pneumoniae [39]): 8 µg/mL; MIC (Streptococcus pneumoniae [40]): 1 µg/mL; MIC (Streptococcus pneumoniae [41]): 2 µg/mL; MIC (Streptococcus pneumoniae [42]): 1 µg/mL; MIC (Streptococcus pneumoniae [43]): 1 µg/mL; MIC (Streptococcus pneumoniae [44]): 8 µg/mL; MIC (Streptococcus pneumoniae [45]): 4 µg/mL
